Tests used:
[1] = Antidepressant-like effects (MED), Table 2; format: in vivo; conditions: minimal effective dose
Excerpt: Table 2, below, summarizes the dose at which antidepressant-like effects are observed, the dose at which sexual dysfunction occurs, and the therapeutic window.

male Sprague-Dawley rats = format: in vivo, rat; conditions: for Sexual dysfunction (MED mg/kg): male, Sprague-Dawley, rat, in vivo, 30 min; for reduction of the number of penile erections relative to vehicle treated animals: sexually experienced male rats, female stimuli present, i.p. once daily
Excerpt: In summary, male rats were allowed access to sexually receptive females during a single overnight mating session and then administered antidepressants with varying degrees of clinically reported sexual deficits. […] Animals
Intact male Sprague-Dawley rats (Charles River Laboratories) arrived at 7 weeks of age and were allowed to habituate for one week prior to sexual experience or behavioral testing. Rats were group housed in same-sex colony rooms with food and water provided ad libitum. All animals were maintained under a 12:12 light-dark cycle (lights on at 6:00 am) with behavioral experiments performed during the light hours beginning at noon.
Ovariectomized female Long-Evans rats (Charles River Laboratories) were individually housed and brought into behavioral estrus weekly by subcutaneous injection of 25 ug 17-B estradiol benzoate in 0.1 ml corn oil 48 hours prior to testing, followed by subcutaneous administration of 2.5 mg progesterone in 0.1 ml corn oil 4 to 6 hours before testing.
For subjects assigned into the sexually experienced group, the following procedures were performed. Individual male rats were placed into the home cage of a a sexually receptive female for overnight mating sessions. The cage was a Plexiglas cage measuring 10×12 inches, with food and water ad libitum. Mating pairs were randomly assigned. […] Following overnight mating sessions, males and females were separated from each other and placed back into same-sex colony rooms where they were group-housed until the time of behavioral testing.
To determine the effects of female stimuli on non-contact penile erections, sexually receptive females were brought into the testing room 30 minutes prior to the start of behavioral testing in order to provide female visual, olfactory, and auditory stimuli for males. The testing arena for observing non-contact penile erections in male rats consisted of an empty rat size Plexiglas cage (11×10 inches) containing no bedding, with an aerated plastic lid and a total ceiling height of 12 inches. […] A penile erection consisted of observation of the male rat in a hunched position grasping the penis with the forepaws and followed by a series of pelvic thrusts. The number of penile erections were quantified over a 30 minute observation session.
Following sexual experience (as described above), male subjects (n=8 per group) were administered either 10 mg/kg/day fluoxetine or saline vehicle for 14 days. On the 14th day, fluoxetine treatment was co-administered with either saline or apomorphine (0.1-0.3 mg/kg, sc) or yohimbine (0.1-0.3 mg/kg, sc) or sildenafil (0.1-0.3 mg/kg, sc) in separate experiments. Non-contact penile erections were evaluated in 30 minute test sessions in the presence of sexually receptive female rats.
Fluoxetine HCl (Tocris), desipramine (Sigma, St. Louis, Mo.) and bupropion HCl (Toronto Research Chemicals, Canada) were dissolved in 0.9% sterile saline vehicle and injected intraperitoneally (i.p.) once daily. On the day of behavioral testing, antidepressants were administered intraperitoneally (i.p.) as one hour pretreatments. For reversal experiments, apomorphine (Sigma, St. Louis, Mo.), yohimbine (Sigma, St. Louis, Mo.) or sildenafil (Toronto Research Chemicals, Canada) were used. Apomorphine was dissolved in 0.9% sterile saline vehicle and injected subcutaneously (s.c.). Yohimbine was dissolved in dH2O facilitated with 1N HCl, followed by addition of 1N NaOH for titration (pH=7) and administered intraperitoneally (i.p.). Sildenafil was dissolved in 0.9% sterile saline vehicle and administered intraperitoneally (i.p.). With the exception of fluoxetine which was administered in a dose volume of 2 ml/kg, all other test compounds were administered in a dose volume of 1 ml/kg. On the day of behavioral testing, both fluoxetine and the reversal agent (apomorphine, yohimbine, or sildenafil) were co-administered as 0 minute pretreatments. […]

[2] = test system: male Sprague Dawley CD rats; test: Reversal of MK-801 induced deficits in PPI; conditions: data generated within the applicant's lab, doses not given

Row | Sexual dysfunction (MED mg/kg) (male Sprague-Dawley rats) | Compound | Antidepressant-like effects (MED mg/kg) [1] | reduction of the number of penile erections relative to vehicle treated animals (male Sprague-Dawley rats) | attenuation of MK-801 induced deficit in PPI (reference antipsychotics) [2]
1 | >20 mg/kg | CC(NC(C)(C)C)C(=O)c1cccc(Cl)c1 (stereo not shown) [Bupropion, bupropion] | 20 mg/kg | 9% | –
2 | 10 mg/kg | CNCCCN1c2ccccc2CCc2ccccc21 [Desipramine, desipramine] | 10 mg/kg | 43% | –
3 | 10 mg/kg | CNCCC(Oc1ccc(C(F)(F)F)cc1)c1ccccc1 (stereo not shown) [Fluoxetine, fluoxetine] | 10 mg/kg | 72% | –
4 | – | Cc1nc2n(c(=O)c1CCN1CCC(c3noc4cc(F)ccc34)CC1)CCCC2 [risperidone, reference compound] | – | – | will attenuate
